Laboratory results as given in patent publication US10590393B2, “Retinoic acid enhanced human stem cell derived blood brain barrier model” (Wisconsin Alumni Research Foundation, priority 2012, dated 2020).
“And” between values parts separate entries of the source, which are not always exact repeats. Identical values can stand only once.

Columns and labels:
Assay type in all cases: cell-based, human
[1] = system: H9-derived BMECs; assay: TEER of RA-treated H9-derived BMECs
Method: (§1) IMR90-4 and DF19-9-11T hiPSCs and H9 hESCs were maintained between passages 26-42 on […] (BD Biosciences) in mTeSR1™ medium ([…] Technologies) or on irradiated mouse embryonic fibroblasts (MEFs) in standard unconditioned medium (Dulbecco's Modified Eagle's Medium [DMEM]/Ham's F12 containing 20% Knockout Serum Replacer (Invitrogen), 1×MEM nonessential amino acids (Invitrogen), 1 mM L-glutamine (Sigma), 0.1 mM β-mercaptoethanol (Sigma), and human basic fibroblast growth factor (bFGF; 100 ng/mL for hiPSCs and 4 ng/mL for hESCs; Waisman Clinical Biomanufacturing Facility, University of Wisconsin-Madison)). Prior to differentiation, cells were passaged onto Matrigel (BD Biosciences) in mTeSR1 medium ([…] Technologies). After 2-3 days in mTeSR1, medium was switched to unconditioned medium (UM) lacking bFGF for 6 days. Human endothelial serum-free medium (hESFM; Invitrogen) supplemented with 20 ng/mL bFGF (R&D Systems) and 1% platelet-poor plasma derived bovine serum (Biomedical Technologies, Inc.) was then added for an additional 2-4 days.
(§2) All-trans RA (Sigma) was included at concentrations of 1-10 μM depending on the experiment. Equivalent DMSO was used as a vehicle control in some experiments. Cells were then dissociated with Versene (Invitrogen) and plated onto 12-well tissue culture polystyrene plates or 1.12 cm^2 Transwell-Clear® permeable inserts (0.4 μm pore size) coated with a mixture of collagen IV (400 μg/mL; Sigma) and fibronectin (100 μg/mL; Sigma). Culture plates were incubated with the coating for at least 30 min at 37° C., while the inserts were incubated for a minimum of 4 h at 37° C. hPSC-derived BMECs were then cultured in EC medium overnight (with or without RA). […] Also, our previous study used hPSCs exclusively maintained on MEFs.
(§3) FIG. 5 dictates the timing of co-culture experiments. During the subculture phase, hPSC-derived BMECs were monocultured or co-cultured with pericytes or fibroblasts in EC medium (with or without RA). After the 24 h subculture phase, hPSC-derived BMECs were maintained as a monoculture or co-cultured with differentiated hNPCs, pericytes, or fibroblasts. Depending on the experiment, co-culture was conducted in NPC differentiation medium containing 10% FBS (as opposed to the 1% FBS used during NPC differentiation) or hESFM containing 1% PDS but not bFGF (modified EC medium). Trans-endothelial electrical resistance (TEER) was measured immediately prior to co-culture using an EVOM voltohmmeter (World Precision Instruments, Sarasota, Fla., USA) and approximately every 24 h thereafter as necessary.

[2] = system: DF19-9-11T-derived BMECs; assay: TEER of RA-treated DF19-9-11T-derived BMECs
Method: as §1, §2
FIG. 5 dictates the timing of co-culture experiments. […] Trans-endothelial electrical resistance (TEER) was measured immediately prior to co-culture using an EVOM voltohmmeter (World Precision Instruments, Sarasota, Fla., USA) and approximately every 24 h thereafter as necessary.

[3] = system: IMR90-4-derived BMECs; assay: TEER of RA-treated IMR90-4-derived BMECs (monoculture and neural cell co-culture)
Method: as §1, §2, §3

[4] = system: IMR90-4-derived BMECs; assay: Efflux transporter substrate accumulation; conditions: 10 μM RA vs. DMSO-treated controls; 1 h at 37° C.
Method: (§4) hiPSC-derived BMECs differentiated in the presence or absence of RA were subcultured onto 12-well plates in EC medium with 10 μM RA or equivalent DMSO depending on the differentiation condition. […] Cells were washed three times with phosphate-buffered saline (PBS) and then lysed with PBS containing 5% Triton X-100 (TX-100; Fisher). Fluorescence (485 nm excitation and 530 nm emission) was measured using a plate reader and radioactivity was measured on a scintillation counter. Fluorescence/radioactivity was normalized on a per cell basis by counting trypsin-dissociated cells on a hemacytometer. Duplicate or triplicate wells were used for each condition to calculate mean and standard deviation. Each experiment was conducted twice to ensure biological reproducibility.

[5] = system: DF19-9-11T-derived BMECs; assay: Efflux transporter substrate accumulation; conditions: due to RA treatment
Method: as §4

SMILES: CC1=C(/C=C/C(C)=C/C=C/C(C)=C/C(=O)O)C(C)(C)CCC1 [RA, retinoic acid]
- TEER ([1]; optimized RA schedule (6D UM, 1D EC, 3D EC+RA), after purification (FIG. 9c)): 1039±142 Ω×cm^2
- Maximum TEER ([1]; subculture: pericytes, co-culture phase: differentiated NPCs (9 days), 1% PDS): 1675±95 Ω × cm^2 and 1675 ± 95 (2) Ω × cm^2
- Average TEER ([1]; t = 24 h, optimized RA schedule, between biological replicates): 646±308 Ω × cm^2
- Maximum TEER ([1]; t = 24 h, triplicate filters): 1028 ± 153 Ω × cm^2
- Maximum TEER ([2]; subculture: pericytes, co-culture phase: differentiated NPCs (11 days), 1% PDS): 4738±303 Ω × cm^2 and 4738 ± 303 (2) Ω × cm^2
- Average TEER ([2]; t = 24 h, between biological replicates): 1707 ± 417 Ω × cm^2
- Maximum TEER ([2]; t = 24 h, triplicate filters): 1968±288 Ω × cm^2
- TEER ([3]; 24 hours after transfer to EC medium without bFGF or RA, monoculture): above 2000 Ω×cm^2
- TEER ([3]; 24 hours in modified EC medium, fibroblasts (FIG. 11a)): 2405±366 Ω×cm^2
- TEER ([3]; 24 hours in modified EC medium, monoculture control (FIG. 11a)): 2474±124 Ω×cm^2
- TEER ([3]; 24 hours, sequential pericyte/hNPC co-culture in modified EC medium (FIG. 11a)): 5160±318 Ω×cm^2
- TEER ([3]; pericyte/hNPC co-culture, each of 7 co-cultures, hNPCs differentiated 10-19 days, 10% FBS (FIG. 10c)): exceeded 2500 Ω×cm^2
- TEER under optimal conditions ([3]; pericytes/hNPCs in modified EC medium, five out of six separate co-culture experiments): > 5000 Ω×cm^2
- Maximum TEER ([3]; subculture: monoculture, co-culture phase: differentiated NPCs (10 days), 10% FBS): 2938 ± 229 (3) Ω × cm^2
- Maximum TEER ([3]; subculture: pericytes, co-culture phase: differentiated NPCs (10 days), 10% FBS): 3606 ± 366 (7) Ω × cm^2
- Maximum TEER ([3]; subculture: pericytes, co-culture phase: differentiated NPCs (17 days), 1% PDS): 5352±252 Ω × cm^2 and 5352 ± 252 (6) Ω × cm^2
- Maximum TEER ([3]; subculture: pericytes, co-culture phase: pericytes, 1% PDS (modified EC medium), 24 h): 4454±174 Ω × cm^2 and 4454 ± 175 ^ Ω × cm^2
- Maximum TEER ([3]; subculture: pericytes, co-culture phase: pericytes, 10% FBS): 2892 ± 271 ^ Ω × cm^2
- Average TEER ([3]; t = 0 h, monoculture, mean ± S.D. between biological replicates): 956 ± 345 Ω × cm^2
- Maximum TEER ([3]; t = 0 h, monoculture, mean ± S.D. between triplicate filters): 1502 ± 145 Ω × cm^2
- Average TEER ([3]; t = 24 h, monoculture, modified EC medium without bFGF or RA, between biological replicates): 2935±802 Ω × cm^2 and at least 2935±802 Ω × cm^2
- Maximum TEER ([3]; t = 24 h, monoculture, triplicate filters): 3674 ± 367 Ω × cm^2
- baseline TEER ([3]; t=0 h, 24 hours after purification at confluence, range over experiments): 300-1500 Ω×cm^2
- TEER ([3]; t=0, human foreskin fibroblasts in place of pericytes (FIG. 11a)): 2106±30 Ω×cm^2
- TEER ([3]; t=0, monoculture control of FIG. 11a): 1575±163 Ω×cm^2
- TEER ([3]; t=0, pericyte co-culture during the subculture phase, standard EC medium (FIG. 11a)): 3573±175 Ω×cm^2
- decrease of DCFDA accumulation [4]: 2.9 fold
- decrease of colchicine accumulation [4]: 2.4 fold
- decrease of doxorubicin accumulation [4]: 1.6 fold
- decrease of rhodamine 123 accumulation [4]: 1.4 fold
- reduction in rhodamine 123 accumulation [5]: 1.5 fold
